Measurements: patent US20220089550A1, “CRYSTALLINE FORMS OF (S)-2-(7-CYANO-1H-BENZIMIDAZOL-1 YL)-N-{1-[4-(1-CYANO-1-METHYLETHYL)PHENYL]ETHYL}ACETAMIDE” (NEOMED INSTITUTE - INSTITUT NEOMED, priority 2019, published 2022)
pIC50: −log10 of the molar value. ≈ marks a conversion by molar mass, not a printed value. Each block holds one compound with its values, some of them ahead of it.

Tests used:
[1] = Thermal stability (TGA, variable temperature XRPD); assay type: physicochemical
Experimental: Crystals of Form C can be converted (3) to crystals of Form A. For example, crystals of Form C are converted to crystals of Form A by heating the crystals of Form C to 155° C. under nitrogen. Furthermore, crystals of Form C can be converted (5) to crystals of Form F. For example, crystals of Form C are converted to crystals of Form F by heating to 136° C. under nitrogen. […] Further heating of this sample generates a mixture of crystals of Form A and Form F.
Compound 1 appears to be chemically stable up to the decomposition temperature of about 250° C. […] The solid-state stability of the crystalline forms is compared by evaluating the relative “thermodynamic stability” of the crystalline forms and the interconversion between crystalline forms upon heating or when slurrying.
TGA was conducted for each crystalline form using a TA Q500/Q5000 TGA from TA Instruments. For each analysis, the TGA cell/sample chamber was purged with ultra-high purity nitrogen gas. The sample crystal was placed into the bottom of an open aluminium pan. […] The weight was plotted versus the measured sample temperature. The data were reported in % of the initial weight. The TGA thermograms for Forms A to F were obtained and can be seen at FIGS. 7 to 12.

[2] = molecular target: VR1 receptor (Homo sapiens, UniProt Q8NER1); settings: whole cells, intracellular Ca2+ imaging, assay of WO 2008018827; read-out: IC50, antagonist of capsaicin responses; cited from earlier work
[3] = Approximate solubility of crystals of Form A at room temperature; assay type: physicochemical; settings: thermodynamic from solid
Experimental: Approximately 2 mg solids were added into a 3-mL glass vial. Solvents as listed in Table 7 were then added stepwise into the vials until the solids were dissolved or a total volume of 1 mL was reached. The results are summarized in Table 7, and were used to guide solvent selection in the polymorph screening.

[4] = Stability tests for Form A (temperature, relative humidity, compression; XRPD); assay type: physicochemical
Experimental: Experiments were conducted to evaluate the stability of Form A under various temperature, relative humidity and compression conditions.

[5] = Slurry conversion of Form A/Form E and Form A/Form F mixtures in IPA; assay type: physicochemical; settings: equal-mass mixtures with Form E or Form F in pre-saturated IPA, room temperature, 48 h
Experimental: Excess amounts of crystals of Form A were added to 2 mL of IPA. The mixture was magnetically stirred at a speed of 750 rpm at room temperature overnight to obtain a saturated solution. The saturated solution was filtered on a PTFE membrane (0.45 μm) to remove the excess solids.
(§1) An equal-mass physical mixture of crystals of Form A and Form E (6 mg of each Form) was added into 0.5 mL of the pre-saturated IPA solution and magnetically stirred at a speed of 750 rpm for 48 h. Solids were isolated from the suspension by centrifugation and an XRPD test was performed (shown at FIG. 19(b)).
as §1, with “Similarly, an” for “An”, “F” for “E”, “19(c)).” for “19(b)).”
In the case of both mixtures, only crystals of Form A were isolated after stirring for 48 h.

Chain of VR1 receptor (Q8NER1 whole entry): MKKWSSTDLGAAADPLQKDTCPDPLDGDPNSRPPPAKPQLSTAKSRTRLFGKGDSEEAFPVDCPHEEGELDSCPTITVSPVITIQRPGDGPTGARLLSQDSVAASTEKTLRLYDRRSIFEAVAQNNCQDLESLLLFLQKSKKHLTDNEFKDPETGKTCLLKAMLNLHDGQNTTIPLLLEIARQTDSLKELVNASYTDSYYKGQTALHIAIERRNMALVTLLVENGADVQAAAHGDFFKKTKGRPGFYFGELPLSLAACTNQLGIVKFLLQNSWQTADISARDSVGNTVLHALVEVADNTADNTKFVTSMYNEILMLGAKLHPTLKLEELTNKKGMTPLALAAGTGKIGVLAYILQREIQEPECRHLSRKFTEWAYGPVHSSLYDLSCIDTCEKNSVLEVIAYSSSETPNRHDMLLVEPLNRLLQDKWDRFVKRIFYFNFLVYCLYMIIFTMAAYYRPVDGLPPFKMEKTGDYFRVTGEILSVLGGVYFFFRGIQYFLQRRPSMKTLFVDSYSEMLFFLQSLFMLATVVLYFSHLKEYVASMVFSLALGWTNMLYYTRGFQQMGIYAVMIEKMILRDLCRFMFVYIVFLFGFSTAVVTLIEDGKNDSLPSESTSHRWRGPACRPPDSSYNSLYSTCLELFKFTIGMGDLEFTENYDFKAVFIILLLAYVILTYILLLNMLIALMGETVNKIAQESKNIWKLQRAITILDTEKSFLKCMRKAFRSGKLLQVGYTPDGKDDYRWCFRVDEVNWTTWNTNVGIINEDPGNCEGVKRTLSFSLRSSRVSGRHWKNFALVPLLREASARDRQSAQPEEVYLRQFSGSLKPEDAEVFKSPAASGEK

Decomposition temperature (chemically stable up to) ([1]; TGA, 10° C./min, nitrogen): about 250 °C
Compound: C[C@H](NC(=O)Cn1cnc2cccc(C#N)c21)c1ccc(C(C)(C)C#N)cc1 [Compound 1, (S)-2-(7-Cyano-1H-benzimidazol-1-yl)-N-{1-[4-(1-cyano-1-methylethyl)phenyl]ethyl}acetamide]
pIC50 [2]: 7.31 to 7.39

solubility ([3]; 25 °C, organic solvent or mixture, 1,4-Dioxane, room temperature): > 36 mg/mL
solubility ([3]; 25 °C, organic solvent or mixture, 2-MeTHF, room temperature): > 36 mg/mL
solubility ([3]; 25 °C, organic solvent or mixture, ACN, room temperature): > 40 mg/mL
solubility ([3]; 25 °C, organic solvent or mixture, Acetone, room temperature): > 38 mg/mL
solubility ([3]; 25 °C, organic solvent or mixture, Anisole, room temperature): 7.3 to 22 mg/mL (≈ 19.7 to 59.2 mM)
solubility ([3]; 25 °C, organic solvent or mixture, CHCl3, room temperature): > 42 mg/mL
solubility ([3]; 25 °C, organic solvent or mixture, DCM, room temperature): > 40 mg/mL
solubility ([3]; 25 °C, organic solvent or mixture, DMAc, room temperature): > 36 mg/mL
solubility ([3]; 25 °C, organic solvent or mixture, DMSO, room temperature): > 44 mg/mL
solubility ([3]; 25 °C, organic solvent or mixture, EtOAc, room temperature): 22 to 44 mg/mL (≈ 59.2 to 118 mM)
solubility ([3]; 25 °C, organic solvent or mixture, EtOH, room temperature): > 40 mg/mL
solubility ([3]; 25 °C, organic solvent or mixture, IPA, room temperature): 7 to 21 mg/mL (≈ 18.8 to 56.5 mM)
solubility ([3]; 25 °C, organic solvent or mixture, IPAc, room temperature): 6.7 to 20 mg/mL (≈ 18 to 53.8 mM)
solubility ([3]; 25 °C, organic solvent or mixture, MEK, room temperature): > 40 mg/mL
solubility ([3]; 25 °C, organic solvent or mixture, MIBK, room temperature): 18 to 36 mg/mL (≈ 48.5 to 96.9 mM)
solubility ([3]; 25 °C, organic solvent or mixture, MTBE, room temperature): < 1.8 mg/mL
solubility ([3]; 25 °C, organic solvent or mixture, THF, room temperature): > 40 mg/mL
solubility ([3]; 25 °C, organic solvent or mixture, Toluene, room temperature): < 2.1 mg/mL
solubility ([3]; 25 °C, organic solvent or mixture, n-Heptane, room temperature): < 2.2 mg/mL
solubility ([3]; organic solvent or mixture, MeOH, room temperature (25° C.±2° C.)): > 42 mg/mL
solubility ([3]; water, 25 °C, H2O, room temperature): < 2.1 mg/mL
Temperature up to which the crystalline form is stable ([1]; heating, variable temperature XRPD / DSC): about 167.9 °C
Compound: C[C@H](NC(=O)Cn1cnc2cccc(C#N)c21)c1ccc(C(C)(C)C#N)cc1 [Form A, (S)-2-(7-Cyano-1H-benzimidazol-1-yl)-N-{1-[4-(1-cyano-1-methylethyl)phenyl]ethyl} acetamide]
Effect of grinding on XRPD ([4]; aggressive grinding for 2 minutes): minor decrease in the relative intensity of the peaks
Stability of the crystal structure (XRPD) on stressed samples ([4]; various temperature, relative humidity and compression conditions, compared to Form A as synthesized): crystalline structure remained generally similar
Thermodynamic stability by slurry conversion [5]: thermodynamically stable form at room temperature among the three anhydrate Forms
